Active and inactive are the calls of the source. The rule behind the calls is not given here.
Legend:
CAKI-1 [1] = assay: Growth inhibition of human Caki1 cells after 48 hrs by sulforhodamine B assay; format: functional; conditions: CAKI-1, 48 h
Malme-3M [2] = assay: Growth inhibition of human MALME-3M cells after 48 hrs by sulforhodamine B assay; format: functional
MOLT-4 = assay: Growth inhibition of human MOLT4 cells at 1 uM after 48 hrs by sulforhodamine B assay; format: functional, cell-based
786-0 = assay: Growth inhibition of human 786-0 cells at 1 uM after 48 hrs by sulforhodamine B assay; format: functional, cell-based
NCI-H322M = assay: Growth inhibition of human […] cells at 1 uM after 48 hrs by sulforhodamine B assay; format: functional, cell-based
U-251 = assay: Growth inhibition of human U251 cells after 48 hrs by sulforhodamine B assay; format: functional; conditions: U-251, 48 h
Malme-3M [3] = assay: Growth inhibition of human MALME-3M cells at 1 uM after 48 hrs by sulforhodamine B assay; format: functional, cell-based
ACHN [4] = assay: Growth inhibition of human ACHN cells at 1 uM after 48 hrs by sulforhodamine B assay; format: functional, cell-based
EKVX [5] = assay: Growth inhibition of human EKVX cells at 1 uM after 48 hrs by sulforhodamine B assay; format: functional, cell-based
OVCAR-3 [6] = assay: Growth inhibition of human OVCAR-3 cells at 1 uM after 48 hrs by sulforhodamine B assay; format: functional, cell-based
SF530 = assay: Growth inhibition of human SF530 cells at 1 uM after 48 hrs by sulforhodamine B assay; format: functional, cell-based
KM12 = assay: Growth inhibition of human KM12 cells after 48 hrs by sulforhodamine B assay; format: functional; conditions: KM12, 48 h
HCT-116 [7] = assay: Growth inhibition of human HCT116 cells after 48 hrs by sulforhodamine B assay; format: functional; conditions: HCT-116, 48 h
OVCAR-3 [8] = assay: Growth inhibition of human OVCAR-3 cells after 48 hrs by sulforhodamine B assay; format: functional; conditions: OVCAR-3, 48 h
M14 = assay: Growth inhibition of human M14 cells at 1 uM after 48 hrs by sulforhodamine B assay; format: functional, cell-based
SR = assay: Growth inhibition of human SR cells after 48 hrs by sulforhodamine B assay; format: functional
NCI-H23 = assay: Growth inhibition of human NCI-H23 cells after 48 hrs by sulforhodamine B assay; format: functional; conditions: NCI-H23, 48 h
UACC-257 = assay: Growth inhibition of human UACC257 cells after 48 hrs by sulforhodamine B assay; format: functional; conditions: UACC-257, 48 h
HCT-116 [9] = assay: Growth inhibition of human HCT116 cells at 1 uM after 48 hrs by sulforhodamine B assay; format: functional, cell-based
A498 = assay: Growth inhibition of human A498 cells at 1 uM after 48 hrs by sulforhodamine B assay; format: functional, cell-based
HT-29 = assay: Growth inhibition of human HT-29 cells at 1 uM after 48 hrs by sulforhodamine B assay; format: functional, cell-based
UACC-62 = assay: Growth inhibition of human UACC62 cells at 1 uM after 48 hrs by sulforhodamine B assay; format: functional, cell-based
UO-31 = assay: Growth inhibition of human UO31 cells at 1 uM after 48 hrs by sulforhodamine B assay; format: functional, cell-based
NCI-H460 = assay: Growth inhibition of human NCI-H460 cells after 48 hrs by sulforhodamine B assay; format: functional; conditions: NCI-H460, 48 h
SK-MEL-28 = assay: Growth inhibition of human SK-MEL-28 cells at 1 uM after 48 hrs by sulforhodamine B assay; format: functional, cell-based
NCI-H522 = assay: Growth inhibition of human NCI-H522 cells at 1 uM after 48 hrs by sulforhodamine B assay; format: functional, cell-based
BT-549 = assay: Growth inhibition of human BT549 cells after 48 hrs by sulforhodamine B assay; format: functional; conditions: BT-549, 48 h
HOP-92 [10] = assay: Growth inhibition of human HOP92 cells after 48 hrs by sulforhodamine B assay; format: functional; conditions: HOP-92, 48 h
NCI/ADR-RES = assay: Growth inhibition of human NCI/ADR-RES cells at 1 uM after 48 hrs by sulforhodamine B assay; format: functional, cell-based
NCI-H226 = assay: Growth inhibition of human NCI-H226 cells at 1 uM after 48 hrs by sulforhodamine B assay; format: functional, cell-based
T47D = assay: Growth inhibition of human T47D cells at 1 uM after 48 hrs by sulforhodamine B assay; format: functional, cell-based
DU-145 = assay: Growth inhibition of human DU145 cells at 1 uM after 48 hrs by sulforhodamine B assay; format: functional, cell-based
CAKI-1 [11] = assay: Growth inhibition of human Caki1 cells at 1 uM after 48 hrs by sulforhodamine B assay; format: functional, cell-based
MDA-MB-435 [12] = assay: Growth inhibition of human MDA-MB-435 cells after 48 hrs by sulforhodamine B assay; format: functional; conditions: MDA-MB-435, 48 h
HL-60 = assay: Growth inhibition of human HL-60(TB) cells at 1 uM after 48 hrs by sulforhodamine B assay; format: functional, cell-based
PC-3 = assay: Growth inhibition of human PC3 cells after 48 hrs by sulforhodamine B assay; format: functional; conditions: PC-3, 48 h
TK-10 = assay: Growth inhibition of human TK10 cells after 48 hrs by sulforhodamine B assay; format: functional; conditions: TK-10, 48 h
SN12C = assay: Growth inhibition of human SN12C cells after 48 hrs by sulforhodamine B assay; format: functional
EKVX [13] = assay: Growth inhibition of human EKVX cells after 48 hrs by sulforhodamine B assay; format: functional
MDA-MB-435 [14] = assay: Growth inhibition of human MDA-MB-435 cells at 1 uM after 48 hrs by sulforhodamine B assay; format: functional, cell-based
HOP-92 [15] = assay: Growth inhibition of human HOP92 cells at 1 uM after 48 hrs by sulforhodamine B assay; format: functional, cell-based
OVCAR-4 [16] = assay: Growth inhibition of human OVCAR4 cells after 48 hrs by sulforhodamine B assay; format: functional; conditions: OVCAR-4, 48 h
OVCAR-4 [17] = assay: Growth inhibition of human OVCAR4 cells at 1 uM after 48 hrs by sulforhodamine B assay; format: functional, cell-based
HOP-62 = assay: Growth inhibition of human HOP62 cells at 1 uM after 48 hrs by sulforhodamine B assay; format: functional, cell-based
ACHN [18] = assay: Growth inhibition of human ACHN cells after 48 hrs by sulforhodamine B assay; format: functional
SK-MEL-2 = assay: Growth inhibition of human SK-MEL-2 cells at 1 uM after 48 hrs by sulforhodamine B assay; format: functional, cell-based
MDA-MB-231 = assay: Growth inhibition of human MDA-MB-231 cells after 48 hrs by sulforhodamine B assay; format: functional; conditions: MDA-MB-231, 48 h
[19] = read-out: LC50 (the source's name)

Nc1nc(N)c2c(n1)NC(c1ccc(Cl)cc1)C1CCc3ccccc3C1=N2 (configuration not stated)
GI50 (CAKI-1 [1]): 4.33 µM
CC50 (CAKI-1 [1]; [19]): 50 µM
GI50 (Malme-3M [2]): 8.48 µM
LC50 (Malme-3M [2]): 54 µM
growth inhibition (GI) (MOLT-4): inactive
growth inhibition (GI) (786-0): inactive
growth inhibition (GI) (NCI-H322M): inactive
GI50 (U-251): 3.81 µM
LC50 (U-251): 43.9 µM
growth inhibition (GI) (Malme-3M [3]): inactive
growth inhibition (GI) (ACHN [4]): inactive
growth inhibition (GI) (EKVX [5]): inactive
growth inhibition (GI) (OVCAR-3 [6]): inactive
growth inhibition (GI) (SF530): inactive
GI50 (KM12): 8.48 µM
LC50 (concentration killing 50% of cells) (KM12): 45.6 µM
GI50 (HCT-116 [7]): 3.72 µM
LC50 (HCT-116 [7]): 38.6 µM
GI50 (OVCAR-3 [8]): 6.46 µM
LC50 (lethal concentration, 50% cell kill) (OVCAR-3 [8]): 43.6 µM
growth inhibition (GI) (M14): inactive
GI50 (SR): 1.73 µM
LC50 (SR): 36.3 µM
GI50 (NCI-H23): 4.88 µM
LC50 (NCI-H23): 44.7 µM
GI50 (UACC-257): 7.07 µM
CC50 (UACC-257; [19]): 44.9 µM
growth inhibition (GI) (HCT-116 [9]): inactive
growth inhibition (GI) (A498): inactive
growth inhibition (GI) (HT-29): inactive
growth inhibition (GI) (UACC-62): inactive
growth inhibition (GI) (UO-31): inactive
GI50 (NCI-H460): 3.77 µM
LC50 (NCI-H460): 39.1 µM
growth inhibition (GI) (SK-MEL-28): inactive
growth inhibition (GI) (NCI-H522): inactive
GI50 (BT-549): 9.01 µM
CC50 (BT-549; [19]): 52.6 µM
GI50 (HOP-92 [10]): 2.26 µM
LC50 (50% lethal concentration) (HOP-92 [10]): 31.9 µM
growth inhibition (GI) (NCI/ADR-RES): inactive
growth inhibition (GI) (NCI-H226): inactive
growth inhibition (GI) (T47D): inactive
growth inhibition (GI) (DU-145): inactive
growth inhibition (GI) (CAKI-1 [11]): inactive
GI50 (MDA-MB-435 [12]): 4.72 µM
LC50 (concentration killing 50% of cells) (MDA-MB-435 [12]): 54.1 µM
growth inhibition (GI) (HL-60): inactive
GI50 (PC-3): 2.86 µM
LC50 (PC-3): 48.9 µM
GI50 (TK-10): 8.2 µM
LC50 (50% lethal concentration) (TK-10): 58 µM
GI50 (SN12C): 7.68 µM
CC50 (SN12C; [19]): 50.9 µM
GI50 (EKVX [13]): 3.62 µM
LC50 (EKVX [13]): 96.5 µM
growth inhibition (GI) (MDA-MB-435 [14]): inactive
growth inhibition (GI) (HOP-92 [15]): inactive
GI50 (OVCAR-4 [16]): 6.45 µM
LC50 (50% lethal concentration) (OVCAR-4 [16]): 50.9 µM
growth inhibition (GI) (OVCAR-4 [17]): inactive
growth inhibition (GI) (HOP-62): inactive
GI50 (ACHN [18]): 4.72 µM
LC50 (50% lethal concentration) (ACHN [18]): 44.2 µM
growth inhibition (GI) (SK-MEL-2): inactive
GI50 (MDA-MB-231): 9.73 µM
CC50 (MDA-MB-231; [19]): 47.9 µM

Reference: ChEMBL document CHEMBL1177848, “Synthesis of novel 6,6a,7,8-tetrahydro-5H-naphtho[1,2-e]pyrimido[4,5-b][1,4]diazepines under microwave irradiation as potential anti-tumor agents” (2010)
